The nature of data set [1]: Anti-HIV activity by using phytohemagglutininin-stimulated peripheral blood mononuclear cell(PHA/PBM) test system. Format: functional. Conditions: Homo sapiens.
Data set [2] can be described thus: Partition coefficient (logP). Format: physicochemical. Conditions: octanol/water.

These results are taken from ChEMBL document CHEMBL1129582, “Lipophilic, acid-stable, adenosine deaminase-activated anti-HIV prodrugs for central nervous system delivery. 3. 6-Amino prodrugs of 2'-beta-fluoro-2',3'-dideoxyinosine” (J Med Chem, 1996).

Broadly, the IC50 is the concentration that gives 50% inhibition. A low value points to greater potency. Molecule `Nc1ncnc2c1ncn2[C@@H]1O[C@H](CO)C[C@@H]1F` [LODENOSINE] yielded an IC50 in data set [1] of 3.3 µM.

For orientation: logP means a log measure of how a compound divides between an organic and an aqueous phase. Read a low logP as lower lipophilicity. In data set [2], `CONc1ncnc2c1ncn2C1OC(CO)CC1F` (centres undefined) came in with a lipophilicity (logP) of -0.414. In data set [1], the IC50 was more than 80 µM.

The molecule `OCC1CC(F)C(n2cnc3c(NOCc4ccccc4)ncnc32)O1` (centres undefined) gave a logP in data set [2] of 1.25. In addition, the half-inhibitory concentration (IC50) in data set [1] was more than 80 µM.

`OCC1CC(F)C(n2cnc3c(Cl)ncnc32)O1` (centres undefined) returned a 50% inhibitory concentration (IC50) in data set [1] of 5.9 µM.

For the molecule `OCC1CC(F)C(n2cnc3c(NO)ncnc32)O1` (centres undefined), the lipophilicity (logP) in data set [2] was -0.983. In data set [1], half-maximal inhibition (IC50) was put at 6.8 µM.

For the molecule `OCC1CC(F)C(n2cnc3c(F)ncnc32)O1` (centres undefined), the IC50 in data set [1] is more than 5 µM.

Take `CN(C)c1ncnc2c1ncn2C1OC(CO)CC1F` (centres undefined): in data set [2], the log partition coefficient (logP) stood at 0.797. This molecule also had a half-inhibitory concentration (IC50) in data set [1] of 18 µM.

In turn, `OCC1CC(F)C(n2cnc3c(O)ncnc32)O1` (centres undefined) showed an IC50 in data set [1] of 6.3 µM.

`NNc1ncnc2c1ncn2C1OC(CO)CC1F` (centres undefined) displayed a half-inhibitory concentration (IC50) in data set [1] of 36.3 µM. Against the preceding molecule, the IC50 is about 5.8-fold higher.

In turn, `CNc1ncnc2c1ncn2C1OC(CO)CC1F` (centres undefined) returned a half-maximal inhibitory concentration (IC50) in data set [1] of 13.1 µM.

On to `O=[N+]([O-])c1ncnc2c1ncn2C1OC(CO)CC1F` (centres undefined), for which the lipophilicity (logP) in data set [2] was -0.395. Besides, in data set [1], the 50% inhibitory concentration (IC50) was 9.6 µM.

`CCNc1ncnc2c1ncn2C1OC(CO)CC1F` (centres undefined): the lipophilicity (logP) in data set [2] came to 0.779. In data set [1], this molecule had a 50% inhibitory concentration (IC50) of 11.1 µM.

In the case of `O=c1[nH]cnc2c1ncn2[C@H]1CC[C@@H](CO)O1` [DIDANOSINE], half-maximal inhibition in data set [1] (IC50) required 0.3 µM.
